# Source: paper PMC12892976, “Alkylation-based optimization of antifungal FPPS inhibitors yields a potent, broad-spectrum lipophilic zoledronate derivative” (mBio, 2025)
# Assays:
# [1] = tested on: Cryptococcus tetragattii; experiment: MIC broth microdilution (CLSI); format: cell-based; settings: Cryptococcus tetragattii WM779
# Method: (§1) Antifungal susceptibility was determined by broth microdilution according to the CLSI guidelines described in M27-Ed4 ([16]).
# [2] = tested on: Cryptococcus deneoformans; experiment: MIC broth microdilution (CLSI); format: cell-based; settings: Cryptococcus deneoformans JEC21
# Method: as §1
# [3] = tested on: Fusarium oxysporum; experiment: MIC broth microdilution (CLSI); format: cell-based; settings: Fusarium oxysporum 07-200-3012
# Method: as §1
# [4] = tested on: Pichia kudriavzevii; experiment: MIC broth microdilution (CLSI); format: cell-based; settings: Pichia kudriavzavii ATCC 6258
# Method: Antifungal susceptibility was determined by broth microdilution according to the CLSI guidelines described in M27-Ed4 ([16]). […] MFC was determined by back-plating drug-treated cultures from MIC broths onto SDA plates. The MFC was defined as the lowest concentration from which no colonies could be cultured.
# [5] = tested on: Aspergillus lentulus; experiment: MIC broth microdilution (CLSI); format: cell-based; settings: Aspergillus lentulus DTO 341-G7
# Method: as §1
# [6] = tested on: Epidermophyton floccosum; experiment: MIC broth microdilution (CLSI); format: cell-based; settings: Epidermophyon floccosum R-113
# Method: as §1
# [7] = tested on: Paraphyton cookei; experiment: MIC broth microdilution (CLSI); format: cell-based; settings: Paraphyton cookei R-639
# Method: as §1
# [8] = tested on: Nannizzia gypsea; experiment: MIC broth microdilution (CLSI); format: cell-based; settings: Nannizzia gypsea R-131
# Method: as §1
# [9] = tested on: Trichophyton interdigitale; experiment: MIC broth microdilution (CLSI); format: cell-based; settings: Trichophyton interdigitale R-234
# Method: as §1
# [10] = tested on: Rhizopus oryzae; experiment: checkerboard drug interaction (FICI, MICc); format: cell-based;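 further: simplified diagonal checkerboard screen pairing antifungals with FPPS inhibitors, FICI calculated under the Loewe additivity model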
# Method: (§2) Drug interactions between antifungals and FPPS inhibitors were investigated using a simplified checkerboard diagonal screening method ([45]). […] FICIs were determined according to the Loewe additivity model ([17]).
# [11] = tested on: Cryptococcus bacillisporus; experiment: checkerboard drug interaction (FICI, MICc); format: cell-based;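 further: interaction of antifungals with FPPS inhibitors assessed by a simplified diagonal checkerboard screen, with FICI computed under the Loewe additivity model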
# Method: as §2
# [12] = tested on: Cryptococcus deneoformans; experiment: checkerboard drug interaction (FICI, MICc); format: cell-based;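 further: simplified diagonal checkerboard screen pairing antifungals with FPPS inhibitors, FICI calculated under the Loewe additivity model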
# Method: as §2
# [13] = tested on: Pichia kudriavzevii; experiment: checkerboard drug interaction (FICI, MICc); format: cell-based;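 further: antifungal plus FPPS inhibitor interactions tested in a simplified diagonal checkerboard screen, with FICI calculated under the Loewe additivity model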
# Method: as §2
# [14] = tested on: Candida tropicalis; experiment: checkerboard drug interaction (FICI, MICc); format: cell-based;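 further: simplified diagonal checkerboard screen of antifungal plus FPPS inhibitor combinations, with FICI computed by the Loewe additivity model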
# Method: as §2
# [15] = tested on: Candida dubliniensis; experiment: checkerboard drug interaction (FICI, MICc); format: cell-based;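 further: simplified diagonal checkerboard screen pairing antifungals with FPPS inhibitors, FICI calculated under the Loewe additivity model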
# Method: as §2
# [16] = tested on: Aspergillus terreus; experiment: checkerboard drug interaction (FICI, MICc); format: cell-based;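 further: simplified diagonal checkerboard screen pairing antifungals with FPPS inhibitors, FICI derived by the Loewe additivity model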
# Method: as §2
# [17] = tested on: Aspergillus udagawae; experiment: checkerboard drug interaction (FICI, MICc); format: cell-based;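 further: simplified diagonal checkerboard screen pairing antifungals with FPPS inhibitors, FICI calculated using the Loewe additivity model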
# Method: as §2
# [18] = tested on: Aspergillus felis; experiment: checkerboard drug interaction (FICI, MICc); format: cell-based;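 further: simplified diagonal checkerboard screen pairing antifungals with FPPS inhibitors, FICI calculated under the Loewe additivity model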
# Method: as §2
# [19] = tested on: Fusarium solani; experiment: MIC broth microdilution (CLSI); settings: Fusarium solani 04-16-056-1862
# Method: as §1
# [20] = tested on: Microsporum canis; experiment: MIC broth microdilution (CLSI); settings: Microsporum canis R-232
# Method: as §1
# [21] = tested on: Trichophyton tonsurans; experiment: MIC broth microdilution (CLSI); settings: Trichophyton tonsurans R-168
# Method: as §1
# [22] = tested on: Trichophyton soudanense; experiment: MIC broth microdilution (CLSI); settings: Trichophyton soudanense R-167
# Method: as §1
# [23] = tested on: Paraphyton cookei; experiment: checkerboard drug interaction (FICI, MICc);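 further: simplified diagonal checkerboard screen pairing an antifungal with an FPPS inhibitor, FICI computed under the Loewe additivity model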
# Method: as §2
Compound,MIC / MEC [1],MIC / MEC [2],MIC / MEC [3],MIC / MEC [4],MIC / MEC [5],MIC / MEC [6],MIC / MEC [7],MIC / MEC [8],MIC / MEC [9],antifungal MICc ([10]; in combination with 10-ZOL),antifungal MICc ([10]; in combination with ZOL),antifungal MICc ([11]; in combination with 10-ZOL),antifungal MICc ([11]; in combination with ZOL),antifungal MICc ([12]; in combination with 10-ZOL),antifungal MICc ([12]; in combination with ZOL),antifungal MICc ([13]; in combination with 10-ZOL),antifungal MICc ([13]; in combination with ZOL),antifungal MICc ([14]; in combination with 10-ZOL),antifungal MICc ([14]; in combination with ZOL),antifungal MICc ([15]; in combination with 10-ZOL),further results
"C[C@@H]1[C@H](O)[C@@H](C)/C=C/C=C/C=C/C=C/C=C/C=C/C=C/[C@H](O[C@@H]2O[C@H](C)[C@@H](O)[C@H](N)[C@@H]2O)C[C@@H]2O[C@](O)(C[C@@H](O)C[C@@H](O)[C@H](O)CC[C@@H](O)C[C@@H](O)CC(=O)O[C@H]1C)C[C@H](O)[C@H]2C(=O)O [AMB, amphotericin B]",0.5 mg/L,0.25 mg/L,1 mg/L,0.5 mg/L,4 mg/L,0.5 mg/L,1 mg/L,0.5 mg/L,0.5 mg/L,0.13,0.13,0.125,1,0.125,0.125,0.25,0.25,0.5,1,0.25,antifungal MICc ([15]; in combination with ZOL): 0.25; antifungal MICc ([16]; in combination with 10-ZOL): 0.25; antifungal MICc ([16]; in combination with ZOL): 0.5; antifungal MICc ([17]; in combination with 10-ZOL): 0.25; antifungal MICc ([17]; in combination with ZOL): 0.25; antifungal MICc ([18]; in combination with 10-ZOL): 2; antifungal MICc ([18]; in combination with ZOL): 8; MIC / MEC [19]: 0.5 mg/L; MIC / MEC [20]: 1 mg/L; MIC / MEC [21]: 0.13 mg/L; MIC / MEC [22]: 0.5 mg/L; antifungal MICc ([23]; in combination with 10-ZOL): 1; antifungal MICc ([23]; in combination with ZOL): 0.25
"Nc1nc(=O)[nH]cc1F [5FC, 5-flucytosine]",4 mg/L,2 mg/L,>64 mg/L,16 mg/L,>64 mg/L,64 mg/L,>64 mg/L,>64 mg/L,>64 mg/L,512,256,1,0.125,0.25,0.5,16,2,0.5,0.125,0.125,antifungal MICc ([15]; in combination with ZOL): 0.125; antifungal MICc ([16]; in combination with 10-ZOL): 64; antifungal MICc ([16]; in combination with ZOL): 32; antifungal MICc ([17]; in combination with 10-ZOL): 64; antifungal MICc ([17]; in combination with ZOL): 256; antifungal MICc ([18]; in combination with 10-ZOL): 256; antifungal MICc ([18]; in combination with ZOL): 64; MIC / MEC [19]: >64 mg/L; MIC / MEC [20]: >64 mg/L; MIC / MEC [21]: 64 mg/L; MIC / MEC [22]: 64 mg/L; antifungal MICc ([23]; in combination with 10-ZOL): 512; antifungal MICc ([23]; in combination with ZOL): 512
"CC[C@H](C)C[C@H](C)CCCCCCCCC(=O)N[C@H]1C[C@@H](O)[C@@H](NCCN)NC(=O)[C@@H]2[C@@H](O)CCN2C(=O)[C@H]([C@H](O)CCN)NC(=O)[C@H]([C@H](O)[C@@H](O)c2ccc(O)cc2)NC(=O)[C@@H]2C[C@@H](O)CN2C(=O)[C@H]([C@@H](C)O)NC1=O [CAS, caspofungin]",8 mg/L,16 mg/L,>16 mg/L,1 mg/L,4 mg/L,0.13 mg/L,0.25 mg/L,1 mg/L,0.25 mg/L,128,4,2,8,2,8,0.5,0.5,0.25,0.02,0.063,antifungal MICc ([15]; in combination with ZOL): 0.01; antifungal MICc ([16]; in combination with 10-ZOL): 2; antifungal MICc ([16]; in combination with ZOL): 2; antifungal MICc ([17]; in combination with 10-ZOL): 1; antifungal MICc ([17]; in combination with ZOL): 2; antifungal MICc ([18]; in combination with 10-ZOL): 0.5; antifungal MICc ([18]; in combination with ZOL): 0.5; MIC / MEC [19]: 16 mg/L; MIC / MEC [20]: 0.25 mg/L; MIC / MEC [21]: 0.5 mg/L; MIC / MEC [22]: 0.5 mg/L; antifungal MICc ([23]; in combination with 10-ZOL): 0.25; antifungal MICc ([23]; in combination with ZOL): 0.125
